Test results: paper PMC7327804 (Data in Brief, 2020)

What was measured:
[1] = biological target: T1, HA-hNTS2 receptor (Homo sapiens, UniProt O95665); test: Cell-surface ELISA for internalization of HA-hNTS2 receptor; format: cell-based; conditions: CHO-K1 cells transfected with HA-hNTS2, 1 µM ligand, 60 min at 37 °C in serum-free media, mean ± SEM of at least three independent determinations
T1 construct: expressed in transfected cells; host or cells: CHO-K1, transient transfection
Procedure: Receptor internalization using CHO-K1 cells transiently transfected with either HA-NTS1 or HA-NTS2 was carried out as previously described in details [9], [10], [11]. […] Cells were then washed with PBS and remaining ELISA steps form the detailed protocol were followed and unchanged. Absorbance was read at 450 nm and data were normalized according to the protocol.

[2] = test system: NTS1 (p42/p44 MAPK phosphorylation); test: Western blot of p42/p44 (ERK1/2) phosphorylation in CHO-K1 cells stably expressing NTS1; format: cell-based, human; conditions: CHO-K1 cells stably expressing NTS1, serum-starved, 1 µM ligand, various time points
Procedure: (§1) Cells stably expressing NTS1 or NTS2 were grown for 48 h in complete culture media before being incubated for 16 h in serum-free media. Cells were then stimulated with either NT or JMV2009. Aspiration of media and addition of ice-cold PBS blocked any further protein phosphorylation. Cells were then lysed in RIPA containing proteases and phosphatases inhibitors before being centrifuged at 8000 g for 15 min.
(§2) Separation, transfer and blotting steps were performed as described previously using anti-phosphorylated ERK1/2 (Cell Signaling, cat# 4376S, lot 18, Danvers, MA; 1:1000, in TBS-T, 1% BSA) or anti-ERK1/2 (Cell Signaling, cat# 4695S, lot 28; 1:1000, in TBS-T, 1% BSA) as primary antibodies and HRP-conjugated anti-rabbit IgG from goat (Cell Signaling, cat# 7074S, lot 28; 1:5000, in TBS-T, 1% BSA) as secondary antibody for detection.

[3] = test system: NTS2 (p42/p44 MAPK phosphorylation); test: Western blot of p42/p44 (ERK1/2) phosphorylation in 1321N1 cells stably expressing NTS2; format: cell-based, human; conditions: 1321N1 cells stably expressing NTS2, serum-starved, 1 µM ligand, various time points
Procedure: as §1, §2

T1 sequence (O95665 whole entry): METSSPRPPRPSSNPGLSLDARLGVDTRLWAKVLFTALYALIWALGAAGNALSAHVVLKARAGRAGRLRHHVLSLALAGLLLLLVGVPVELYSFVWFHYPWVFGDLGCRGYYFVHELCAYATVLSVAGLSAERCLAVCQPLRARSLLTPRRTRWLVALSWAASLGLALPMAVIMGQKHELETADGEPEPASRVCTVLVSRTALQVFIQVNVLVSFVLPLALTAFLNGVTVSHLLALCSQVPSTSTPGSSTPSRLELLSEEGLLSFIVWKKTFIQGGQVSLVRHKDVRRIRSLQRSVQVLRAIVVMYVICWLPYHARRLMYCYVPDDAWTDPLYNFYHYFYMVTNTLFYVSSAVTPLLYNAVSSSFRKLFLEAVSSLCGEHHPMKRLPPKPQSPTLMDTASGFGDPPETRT

CC[C@H](C)[C@H](NC(=O)[C@H](Cc1ccc(O)cc1)NC(=O)[C@@H]1C[Si](C)(C)CN1C(=O)[C@H](CCCCN)NC(=O)[C@@H](N)CCCCN)C(=O)N[C@@H](CC(C)C)C(=O)O [JMV2009]
NTS2 internalization [1]: 15.1 ± 9.8%
phosphorylation of p42/p44 proteins (ERK 1/2), NTS1 cells [2]: time-dependent phosphorylation
phosphorylation of p42/p44 proteins (ERK 1/2), NTS2 cells [3]: time-dependent phosphorylation
